≈ marks a conversion by molar mass, not a printed value.
Columns and labels:
[1] = in vivo; conditions: mouse, ip
[2] = test system: Bacillus anthracis No. 119; test: microbe, parasite or virus in culture; type: cell-based; conditions: NO.119, read-out: Minimum Inhibitory Concn.
[3] = qualitative, in the named solvents
[4] = test system: Salmonella typhimurium LT-2; test: Antimicrobial activity, serial dilution method on agar plate; type: cell-based; conditions: Salmonella enterica, read-out: Minimum Inhibitory Concn.
Method: (§1) The antimicrobial activity of SF2582 A and B on various test microorganisms shown in Table 2 below were determined by the serial dilution method on agar plate, and the minimum inhibitory concentrations (µg/ml) obtained are shown in Table 2 below.

[5] = test system: Escherichia coli W 3630 RGN 823; test: as above; type: cell-based; conditions: W3630RGN823, read-out: Minimum Inhibitory Concn.
Method: as §1

[6] = test system: Enterococcus faecalis ATCC 8043; test: as above; type: cell-based; conditions: ATCC8043, read-out: Minimum Inhibitory Concn.
Method: as §1

[7] = test system: Staphylococcus epidermidis 109; test: as above; type: cell-based; conditions: read-out: Minimum Inhibitory Concn.
Method: as §1

[8] = test system: Manthomonas maltophilia M-0627; test: as above; type: cell-based; conditions: read-out: Minimum Inhibitory Concn.
Method: as §1

[9] = test system: Staphylococcus aureus 209P JC-1; test: as above; type: cell-based; conditions: read-out: Minimum Inhibitory Concn.
Method: as §1

[10] = test system: Escherichia coli No. 29; test: as above; type: cell-based; conditions: read-out: Minimum Inhibitory Concn.
Method: as §1

[11] = test system: Serratia marcescens MB-3848; test: as above; type: cell-based; conditions: MB3848, read-out: Minimum Inhibitory Concn.
Method: as §1

[12] = test system: Staphylococcus aureus Smith S-424; test: as above; type: cell-based; conditions: SMITHS424, read-out: Minimum Inhibitory Concn.
Method: as §1

[13] = test system: Proteus mirabilis GN 310; test: as above; type: cell-based; conditions: GN310, read-out: Minimum Inhibitory Concn.
Method: as §1

[14] = test system: Staphylococcus epidermidis ATCC 14990; test: as above; type: cell-based; conditions: ATCC14990, read-out: Minimum Inhibitory Concn.
Method: as §1

[15] = test system: Klebsiella pneumoniae 22 #3038; test: as above; type: cell-based; conditions: read-out: Minimum Inhibitory Concn.
Method: as §1

[16] = test system: Escherichia coli JC-2; test: as above; type: cell-based; conditions: JC2, read-out: Minimum Inhibitory Concn.
Method: as §1

[17] = test system: Klebsiella pneumoniae PCI 602; test: as above; type: cell-based; conditions: PCI602, read-out: Minimum Inhibitory Concn.
Method: as §1

[18] = test system: Staphylococcus aureus No. 26; test: as above; type: cell-based; conditions: read-out: Minimum Inhibitory Concn.
Method: as §1

[19] = test system: Morganella morganii Kono; test: as above; type: cell-based; conditions: read-out: Minimum Inhibitory Concn.
Method: as §1

[20] = test system: Salmonella sp. D-0001; test: as above; type: cell-based; conditions: SP.D0001, read-out: Minimum Inhibitory Concn.
Method: as §1

[21] = test system: Salmonella typhi O-901-W; test: as above; type: cell-based; conditions: Salmonella enterica, read-out: Minimum Inhibitory Concn.
Method: as §1

[22] = test system: Providencia rettgeri J-0026; test: as above; type: cell-based; conditions: J0026, read-out: Minimum Inhibitory Concn.
Method: as §1

[23] = test system: Pseudomonas aeruginosa MB-3829; test: as above; type: cell-based; conditions: MB3829, read-out: Minimum Inhibitory Concn.
Method: as §1

[24] = test system: Salmonella enteritidis No. 11; test: as above; type: cell-based; conditions: Salmonella enterica, read-out: Minimum Inhibitory Concn.
Method: as §1

[25] = test system: Proteus vulgaris OX 19; test: as above; type: cell-based; conditions: OX19, read-out: Minimum Inhibitory Concn.
Method: as §1

[26] = test system: Shigella sonnei EW 33 Type 1; test: as above; type: cell-based; conditions: EW33TYPE1, read-out: Minimum Inhibitory Concn.
Method: as §1

[27] = test system: Escherichia coli JR 661 W/677; test: as above; type: cell-based; conditions: JR661W/677, read-out: Minimum Inhibitory Concn.
Method: as §1

[28] = test system: Citrobacter freundii GN 346; test: as above; type: cell-based; conditions: GN346, read-out: Minimum Inhibitory Concn.
Method: as §1

[29] = test system: P-388 tumor cells; test: Antitumor activity in mice intraperitoneally implanted with P-388 tumor cells; type: in vivo; conditions: P-388 mice
[30] = test system: PC13; test: Cytotoxicity on tumor cells; type: cell-based; conditions: PC-13; PC13, human lung cancer; 37°C, 72 hours, 5% CO₂; probit method; read-out: IC₅₀
[31] = test system: HL-60; test: Cytotoxicity on tumor cells; type: cell-based; conditions: HL-60, human leukemia; 37°C, 72 hours, 5% CO₂; probit method; read-out: IC₅₀
[32] = test system: L-1210; test: Cytotoxicity on tumor cells; type: cell-based; conditions: L1210; L-1210, mouse leukemia; 37°C, 72 hours, 5% CO₂; probit method; read-out: IC₅₀
[33] = test system: Meth-A; test: Cytotoxicity on tumor cells; type: cell-based; conditions: mouse fibrosarcoma, 37°C, 72 hours, 5% CO₂, probit method, read-out: IC₅₀
[34] = test system: K562; test: Cytotoxicity on tumor cells; type: cell-based; conditions: K562, human leukaemia; 37°C, 72 hours, 5% CO₂; probit method; read-out: IC₅₀
[35] = test system: KB; test: Cytotoxicity on tumor cells; type: cell-based; conditions: human nasopharynx, 37°C, 72 hours, 5% CO₂, probit method, read-out: IC₅₀
[36] = test system: HMV-1; test: Cytotoxicity on tumor cells; type: cell-based; conditions: HMV-1, human melanoma; 37°C, 72 hours, 5% CO₂; probit method; read-out: IC₅₀
[37] = test system: PC10; test: Cytotoxicity on tumor cells; type: cell-based; conditions: PC10, human lung cancer; 37°C, 72 hours, 5% CO₂; probit method; read-out: IC₅₀
[38] = test system: PC14; test: Cytotoxicity on tumor cells; type: cell-based; conditions: PC-14; PC14, human lung cancer; 37°C, 72 hours, 5% CO₂; probit method; read-out: IC₅₀
[39] = test system: B16; test: Cytotoxicity on tumor cells; type: cell-based; conditions: B16, mouse melanoma; 37°C, 72 hours, 5% CO₂; probit method; read-out: IC₅₀
[40] = mice, dose of 200 mg/kg (i.p.)
[41] = test system: P-388; test: Cytotoxicity on tumor cells; type: cell-based; conditions: P388; P-388, mouse leukemia; 37°C, 72 hours, 5% CO₂; probit method; read-out: IC₅₀

SMILES	LD50 at 336 h [1]	MIC [2]	Solubility [3]	MIC [4]	MIC [5]	MIC [6]	MIC [7]	MIC [8]	MIC [9]	MIC [10]	MIC [11]	MIC [12]	MIC [13]	MIC [14]	MIC [15]	MIC [16]	MIC [17]	MIC [18]	MIC [19]	MIC [20]	also measured
COC(=O)C1(C)Nc2c(O)cc3c(c2C1=O)C(CCl)CN3C(=O)c1cc2cc(OC)c(OC)c(OC)c2[nH]1 (stereo not shown) [SF2582 A]	0.25 to 1 mg/kg	0.05 µg/mL (≈ 0.0919 µM)	soluble in methanol, ethyl acetate, acetone, chloroform, or dimethyl sufoxide; insoluble in water or haxane	12.5 µg/mL (≈ 23 µM)	6.25 µg/mL (≈ 11.5 µM)	0.05 µg/mL (≈ 0.0919 µM)	< 0.025 µg/mL	100 µg/mL (≈ 184 µM)	< 0.025 µg/mL	6.25 µg/mL (≈ 11.5 µM)	25 µg/mL (≈ 46 µM)	< 0.025 µg/mL	25 µg/mL (≈ 46 µM)	0.05 µg/mL (≈ 0.0919 µM)	25 µg/mL (≈ 46 µM)	12.5 µg/mL (≈ 23 µM)	25 µg/mL (≈ 46 µM)	< 0.025 µg/mL	50 µg/mL (≈ 91.9 µM)	12.5 µg/mL (≈ 23 µM)	MIC [21]: 3.13 µg/mL (≈ 5.75 µM); MIC [22]: 25 µg/mL (≈ 46 µM); MIC [23]: 25 µg/mL (≈ 46 µM); MIC [24]: 0.78 µg/mL (≈ 1.43 µM); MIC [25]: > 100 µg/mL; MIC [26]: 3.13 µg/mL (≈ 5.75 µM); MIC [27]: 12.5 µg/mL (≈ 23 µM); MIC [28]: 3.13 µg/mL (≈ 5.75 µM); T/C (effect of improving incidence of survival) ([29]; dose 0.033 mg/kg intraperitoneally, once a day for consecutive 2 days): 114%; T/C (effect of improving incidence of survival) ([29]; dose 0.13 mg/kg intraperitoneally, once a day for consecutive 2 days): 148%; T/C (effect of improving incidence of survival) ([29]; dose 0.54 mg/kg intraperitoneally, once a day for consecutive 2 days): 128%; T/C (effect of improving incidence of survival) ([29]; dose 2.14 mg/kg intraperitoneally, once a day for consecutive 2 days): 80%
COC(=O)C1(C)Nc2c(O)cc3c(c2C1=O)C(CO)CN3C(=O)c1cc2cc(OC)c(OC)c(OC)c2[nH]1 (stereo not shown)	–	–	–	–	–	–	–	–	–	–	–	–	–	–	–	–	–	–	–	–	IC50 [30]: 39.5 µg/mL (≈ 75.2 µM); IC50 [31]: 31.5 µg/mL (≈ 59.9 µM); IC50 [32]: 1.3 µg/mL (≈ 2.47 µM); IC50 [33]: 42 µg/mL (≈ 79.9 µM); IC50 [34]: 35.6 µg/mL (≈ 67.7 µM); IC50 [35]: 18 µg/mL (≈ 34.3 µM); IC50 [36]: 12.1 µg/mL (≈ 23 µM); IC50 [37]: 14.1 µg/mL (≈ 26.8 µM); IC50 [38]: > 50 µg/mL; IC50 [39]: 5.1 µg/mL (≈ 9.7 µM); death in acute toxicity test [40]: no case of death; IC50 [41]: 9.4 µg/mL (≈ 17.9 µM)
COC(=O)C1(C)Nc2c(O)cc3c(c2C1=O)CC(Cl)CN3C(=O)c1cc2cc(OC)c(OC)c(OC)c2[nH]1 (stereo not shown) [SF2582 B]	1 to 2 mg/kg	0.05 µg/mL (≈ 0.0919 µM)	soluble in methanol, ethyl acetate, acetone, chloroform, or dimethyl sufoxide; insoluble in water or haxane	25 µg/mL (≈ 46 µM)	12.5 µg/mL (≈ 23 µM)	0.1 µg/mL (≈ 0.184 µM)	0.05 µg/mL (≈ 0.0919 µM)	100 µg/mL (≈ 184 µM)	0.05 µg/mL (≈ 0.0919 µM)	12.5 µg/mL (≈ 23 µM)	25 µg/mL (≈ 46 µM)	< 0.025 µg/mL	25 µg/mL (≈ 46 µM)	0.05 µg/mL (≈ 0.0919 µM)	> 100 µg/mL	25 µg/mL (≈ 46 µM)	50 µg/mL (≈ 91.9 µM)	< 0.025 µg/mL	50 µg/mL (≈ 91.9 µM)	25 µg/mL (≈ 46 µM)	MIC [21]: 3.13 µg/mL (≈ 5.75 µM); MIC [22]: 25 µg/mL (≈ 46 µM); MIC [23]: 50 µg/mL (≈ 91.9 µM); MIC [24]: 1.56 µg/mL (≈ 2.87 µM); MIC [25]: 50 µg/mL (≈ 91.9 µM); MIC [26]: 6.25 µg/mL (≈ 11.5 µM); MIC [27]: 25 µg/mL (≈ 46 µM); MIC [28]: 6.25 µg/mL (≈ 11.5 µM); T/C (effect of improving incidence of survival) ([29]; dose 0.16 mg/kg intraperitoneally, only once): 117%; T/C (effect of improving incidence of survival) ([29]; dose 0.63 mg/kg intraperitoneally, only once): 159%; T/C (effect of improving incidence of survival) ([29]; dose 2.5 mg/kg intraperitoneally, only once): 159%; T/C (effect of improving incidence of survival) ([29]; dose 10.0 mg/kg intraperitoneally, only once): 80%

Source: EP0318056A2, “Novel antibiotics and process for preparing the same” (MEIJI SEIKA KAISHA LTD., priority 1987, dated 1989)
